We go through 25 molecules from US9505728B2, “Triazolone compounds and uses thereof” (INCEPTION 2, INC., priority 2012, dated 2016).

The experiment deals with T1, Human PPARα (Homo sapiens, UniProt Q07869).
T1 construct: host or cells: proprietary non-human mammalian cells
T1 sequence (Q07869 1-468): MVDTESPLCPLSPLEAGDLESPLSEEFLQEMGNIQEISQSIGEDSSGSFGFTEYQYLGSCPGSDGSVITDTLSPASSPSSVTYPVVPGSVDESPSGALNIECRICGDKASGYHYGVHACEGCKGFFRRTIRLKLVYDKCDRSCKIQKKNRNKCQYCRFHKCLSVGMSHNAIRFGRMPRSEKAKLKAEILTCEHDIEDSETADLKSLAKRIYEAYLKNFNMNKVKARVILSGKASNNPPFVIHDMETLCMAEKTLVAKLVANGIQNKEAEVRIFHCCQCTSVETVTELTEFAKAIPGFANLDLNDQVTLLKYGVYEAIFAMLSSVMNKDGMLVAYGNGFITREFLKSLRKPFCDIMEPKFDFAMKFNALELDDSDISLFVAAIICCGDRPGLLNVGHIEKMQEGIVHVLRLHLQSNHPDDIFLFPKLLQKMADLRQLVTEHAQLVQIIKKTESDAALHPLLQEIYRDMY
In words: Human PPARα Reporter Assay (luciferase). The format is cell-based. Conditions: human PPARα reporter cells, overnight incubation, antagonism; read-out: Luciferase IC50. A digest of the protocol:
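Agonist or antagonist activity read as luciferase light from engineered reporter cells carrying human PPARα and a responsive reporter gene. Cells got compound immediately on dispensing, incubated overnight, then treatment media swapped for luciferase detection reagent.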
A general note: Reporter assays use an easily measured gene product as a stand-in for the process of interest.

Regarding `CCn1c(CCCc2ccc(-c3ccnc(NS(=O)(=O)c4ccccc4)n3)cc2)nn(Cc2ccc(C(C)(C)C)cc2)c1=O` [Example 138, N-(4-(4-(3-(1-(4-(tert-Butyl)benzyl)-4-ethyl-5-oxo-4,5-dihydro-1H-1,2,4-triazol-3-yl)propyl)phenyl)pyrimidin-2-yl)benzenesulfonamide], the IC50 was 33 nM.

Consider `CCn1c(CCCc2ccc(-c3ccc(OC)c(CCC(=O)O)c3)cc2)nn(Cc2ccc(C(C)(C)C)cc2)c1=O` [Example 179, 3-(5-{4-[3-(1-{[4-(tert-Butyl)phenyl]methyl}-4-ethyl-5-oxo(1,2,4-triazolin-3-yl))propyl]phenyl}-2-methoxyphenyl)propanoic acid], for which the IC50 turned out to be 121 nM.

Take `CCn1c(CCCc2ccc(-c3ccc(OC(F)(F)F)c(C(=O)O)c3)cc2)nn(Cc2ccc(C(C)(C)C)cc2)c1=O` [Example 131, 4′-(3-(1-(4-(tert-Butyl)benzyl)-4-ethyl-5-oxo-4,5-dihydro-1H-1,2,4-triazol-3-yl)propyl)-4-(trifluoromethoxy)-[1,1′-biphenyl]-3-carboxylic acid]: the IC50 came out at 15 nM.

Consider `CCn1c(CCCc2ccc(-c3ccc(OC)c(CCNS(C)(=O)=O)c3)cc2)nn(Cc2ccc(C(C)(C)C)cc2)c1=O` [Example 183, 1-{[4-(tert-Butyl)phenyl]methyl}-4-ethyl-3-{3-[4-(4-methoxy-3-{2-[(methylsulfonyl)amino]ethyl}phenyl)phenyl]propyl}-1,2,4-triazolin-5-one], for which the IC50 was found to be 440 nM.

As to `CCn1c(CCCc2ccc(-c3ccc(OC)c(NS(=O)(=O)c4ccc(Cl)nc4)n3)cc2)nn(Cc2ccc(C(C)(C)C)cc2)c1=O` [Example 113, 1-{[4-(tert-Butyl)phenyl]methyl}-3-{3-[4-(6-{[(6-chloro(3-pyridyl))sulfonyl]amino}-5-methoxy(2-pyridyl))phenyl]propyl}-4-ethyl-1,2,4-triazolin-5-one], the IC50 was found to be 8 nM.

As to `CCCOc1ccc(-c2ccc(CCCc3nn(Cc4ccc(C(C)(C)C)cc4)c(=O)n3CC)cc2)cc1CC(=O)O` [Example 94, 2-(4′-(3-(1-(4-(tert-Butyl)benzyl)-4-ethyl-5-oxo-4,5-dihydro-1H-1,2,4-triazol-3-yl)propyl)-4-propoxy-[1,1′-biphenyl]-3-yl)acetic acid], the IC50 is 16 nM.

On to `CCn1c(CCCc2ccc(-c3ccc(OC)c(CN)c3)cc2)nn(Cc2ccc(C(C)(C)C)cc2)c1=O` [Example 184, 3-(3-{4-[3-(Aminomethyl)-4-methoxyphenyl]phenyl}propyl)-1-{[4-(tert-butyl)phenyl]methyl}-4-ethyl-1,2,4-triazolin-5-one], for which the IC50 came to 534 nM.

`CCn1c(CCCc2ccc(-c3ccc(OC)c(NS(=O)(=O)CC)n3)cc2)nn(Cc2ccc(C(C)(C)C)cc2)c1=O` [Example 189, 1-{[4-(tert-Butyl)phenyl]methyl}-4-ethyl-3-[3-(4-{6-[(ethylsulfonyl)amino]-5-methoxy(2-pyridyl)}phenyl)propyl]-1,2,4-triazolin-5-one]: the IC50 worked out at 36 nM.

For `CCn1c(CCCc2ccc(-c3cccc(CN)c3)cc2)nn(Cc2ccc(C(C)(C)C)cc2)c1=O` [Example 172, 3-(3-{4-[3-(Aminomethyl)phenyl]phenyl}propyl)-1-{[4-(tert-butyl)phenyl]methyl}-4-ethyl-1,2,4-triazolin-5-one], the IC50 turned out to be 647 nM.

Turning to `CCn1c(CCCc2ccc(-c3cccc(C4CC4C(=O)O)c3)cc2)nn(Cc2ccc(C(C)(C)C)cc2)c1=O` (stereo not shown) [Example 35, 2-(4′-(3-(1-(4-(tert-Butyl)benzyl)-4-ethyl-5-oxo-4,5-dihydro-1H-1,2,4-triazol-3-yl)propyl)-[1,1′-biphenyl]-3-yl)cyclopropanecarboxylic acid], the IC50 was 1120 nM.

As to `CCn1c(CCCc2ccc(-c3ccc(OC(F)(F)F)c(CC(=O)O)c3)cc2)nn(Cc2ccc(C(C)(C)C)cc2)c1=O` [Example 130, 2-(4′-(3-(1-(4-(tert-Butyl)benzyl)-4-ethyl-5-oxo-4,5-dihydro-1H-1,2,4-triazol-3-yl)propyl)-4-(trifluoromethoxy)-[1,1′-biphenyl]-3-yl)acetic acid], the IC50 was 11 nM.

As for `CCn1c(CCCc2ccc(-c3ccc(OC(C)C)c(CC(=O)O)c3)cc2)nn(Cc2ccc(C(C)(C)C)cc2)c1=O` [Example 200, 2-(4′-(3-(1-(4-(tert-Butyl)benzyl)-4-ethyl-5-oxo-4,5-dihydro-1H-1,2,4-triazol-3-yl)propyl)-4-isopropoxy-[1,1′-biphenyl]-3-yl)acetic acid], the IC50 came to 13 nM.

In the case of `CCn1c(CCCc2ccc(-c3ccc(OC)c(N(C)S(=O)(=O)c4ccccc4)n3)cc2)nn(Cc2ccc(C(C)(C)C)cc2)c1=O` [Example 110, 1-{[4-(tert-Butyl)phenyl]methyl}-4-ethyl-3-[3-(4-{5-methoxy-6-[N-methyl(phenylsulfonyl)amino](2-pyridyl)}phenyl)propyl]-1,2,4-triazolin-5-one], the 50% inhibitory concentration (IC50) stood at 534 nM.

As for `CCOc1ccc(-c2ccc(CCCc3nn(Cc4ccc(C(C)(C)C)cc4)c(=O)n3CC)cc2)cc1C(=O)O` [Example 66, 4′-(3-(1-(4-(tert-Butyl)benzyl)-4-ethyl-5-oxo-4,5-dihydro-1H-1,2,4-triazol-3-yl)propyl)-4-ethoxy-[1,1′-biphenyl]-3-carboxylic acid], the IC50 turned out to be 3 nM.

For `CCn1c(CCCc2ccc(-c3cccc(NS(=O)(=O)c4ccc(OC)cc4)n3)cc2)nn(Cc2ccc(C(C)(C)C)cc2)c1=O` [Example 84, 1-{[4-(tert-Butyl)phenyl]methyl}-4-ethyl-3-{3-[4-(6-{[(4-methoxyphenyl)sulfonyl]amino}(2-pyridyl))phenyl]propyl}-1,2,4-triazolin-5-one], the IC50 turned out to be 208 nM.

`CCn1c(CCCc2ccc(-c3ccc(NS(C)(=O)=O)cn3)cc2)nn(Cc2ccc(C(C)(C)C)cc2)c1=O` [Example 12, N-(6-(4-(3-(1-(4-(tert-Butyl)benzyl)-4-ethyl-5-oxo-4,5-dihydro-1H-1,2,4-triazol-3-yl)propyl)phenyl)pyridin-3-yl)methanesulfonamide]: the IC50 is 63 nM.

As to `CCOc1ccc(-c2ccc(CCCc3nn(Cc4ccc(C(C)(C)C)cc4)c(=O)n3CC)cc2)cc1C1(C#N)CC1` [Example 120, 1-(4′-(3-(1-(4-(tert-Butyl)benzyl)-4-ethyl-5-oxo-4,5-dihydro-1H-1,2,4-triazol-3-yl)propyl)-4-ethoxy-[1,1′-biphenyl]-3-yl)cyclopropanecarbonitrile], the IC50 turned out to be 604 nM.

Take `CCn1c(CCCc2ccc(-c3cccc(C(O)C(=O)NC4CC4)c3)cc2)nn(Cc2ccc(C(C)(C)C)cc2)c1=O` (stereo not shown) [Example 56, 2-(4′-(3-(1-(4-(tert-Butyl)benzyl)-4-ethyl-5-oxo-4,5-dihydro-1H-1,2,4-triazol-3-yl)propyl)-[1,1′-biphenyl]-3-yl)-N-cyclopropyl-2-hydroxyacetamide]: the half-maximal inhibitory concentration (IC50) came to 330 nM.

As to `CCCCn1c(CCCc2ccc(-c3ccc(OCC)c(CC(=O)O)c3)cc2)nn(Cc2ccc(C(C)(C)C)cc2)c1=O` [Example 69, 2-(4′-(3-(4-Butyl-1-(4-(tert-butyl)benzyl)-5-oxo-4,5-dihydro-1H-1,2,4-triazol-3-yl)propyl)-4-ethoxy-[1,1′-biphenyl]-3-yl)acetic acid], the IC50 amounted to 24 nM.

As to `CCn1c(CCCc2ccc(-c3cccc(CC(=O)O)c3)cc2)nn(Cc2ccc(C(F)(F)F)cc2)c1=O` [Example 24, 2-(4′-(3-(4-Ethyl-5-oxo-1-(4-(trifluoromethyl)benzyl)-4,5-dihydro-1H-1,2,4-triazol-3-yl)propyl)-[1,1′-biphenyl]-3-yl)acetic acid], the IC50 stood at 579 nM.

With `CCNC(=O)Nc1ccc(-c2ccc(CCCc3nn(Cc4ccc(C(C)(C)C)cc4)c(=O)n3CC)cc2)nc1` [Example 169, 1-(6-(4-(3-(1-(4-(tert-Butyl)benzyl)-4-ethyl-5-oxo-4,5-dihydro-1H-1,2,4-triazol-3-yl)propyl)phenyl)pyridin-3-yl)-3-ethylurea], the IC50 came out at 535 nM.

With `CCn1c(CCCc2ccc(-c3ccc(NS(=O)(=O)c4ccc(Cl)cc4)cn3)cc2)nn(Cc2ccc(C(C)(C)C)cc2)c1=O` [Example 90, 1-{[4-(tert-Butyl)phenyl]methyl}-3-{3-[4-(5-{[(4-chlorophenyl)sulfonyl]amino}(2-pyridyl))phenyl]propyl}-4-ethyl-1,2,4-triazolin-5-one], the concentration for half-maximal inhibition (IC50) was 487 nM.

Regarding `CCn1c(CCCc2ccc(-c3ccc(NS(=O)(=O)Cc4ccccc4)cn3)cc2)nn(Cc2ccc(C(C)(C)C)cc2)c1=O` [Example 79, 1-{[4-(tert-Butyl)phenyl]methyl}-4-ethyl-3-{3-[4-(5-{[benzylsulfonyl]amino}(2-pyridyl))phenyl]propyl}-1,2,4-triazolin-5-one], the IC50 is 263 nM.

Regarding `CCn1c(CCCc2ccc(-c3ccc(OC)c(S(=O)(=O)Nc4ccccn4)c3)cc2)nn(Cc2ccc(C(C)(C)C)cc2)c1=O` [Example 123, 4′-(3-(1-(4-(tert-Butyl)benzyl)-4-ethyl-5-oxo-4,5-dihydro-1H-1,2,4-triazol-3-yl)propyl)-4-methoxy-N-(pyridin-2-yl)-[1,1′-biphenyl]-3-sulfonamide], the IC50 worked out at 186 nM.

Take `CCn1c(CCCc2ccc(-c3csc(C4(O)COC4)n3)cc2)nn(Cc2ccc(C(C)(C)C)cc2)c1=O` [Example 203, 1-(4-(tert-Butyl)benzyl)-4-ethyl-3-(3-(4-(2-(3-hydroxyoxetan-3-yl)thiazol-4-yl)phenyl)propyl)-1H-1,2,4-triazol-5(4H)-one]: the IC50 amounted to 873 nM.

By IC50 is commonly meant the point on the concentration scale where inhibition reaches its midpoint.
